Test results from article PMC4290037, “Purification and Characterization of Glucose-6-Phosphate Dehydrogenase from Camel Liver” (Enzyme Research, 2014).

Target: T1, Glucose-6-phosphate dehydrogenase (camel liver G6PD) (Camelus dromedarius, UniProt G1EHI3)
T1 construct: native enzyme purified from camel liver (subunit 64 kDa, native 194 kDa)
Experiment: enzyme inhibition kinetics of purified enzyme (Lineweaver-Burk, Hill plot, slope replot)
Type: biochemical

T1 sequence (G1EHI3 entry or part of it): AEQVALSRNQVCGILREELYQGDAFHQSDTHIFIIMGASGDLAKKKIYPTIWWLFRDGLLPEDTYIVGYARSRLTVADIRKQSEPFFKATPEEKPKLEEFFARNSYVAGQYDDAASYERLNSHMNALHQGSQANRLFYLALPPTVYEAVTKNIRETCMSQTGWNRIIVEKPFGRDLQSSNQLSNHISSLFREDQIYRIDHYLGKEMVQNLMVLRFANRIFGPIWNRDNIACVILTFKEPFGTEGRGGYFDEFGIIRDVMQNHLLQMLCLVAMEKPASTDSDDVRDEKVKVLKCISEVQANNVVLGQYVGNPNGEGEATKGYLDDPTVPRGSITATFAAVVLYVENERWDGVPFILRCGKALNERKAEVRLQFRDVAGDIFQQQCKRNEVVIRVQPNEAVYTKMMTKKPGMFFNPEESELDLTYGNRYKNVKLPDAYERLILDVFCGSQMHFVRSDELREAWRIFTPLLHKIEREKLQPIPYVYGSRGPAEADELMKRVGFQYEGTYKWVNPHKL

Compound: NC(=O)C1=CN([C@@H]2O[C@H](COP(=O)(O)OP(=O)(O)OC[C@H]3O[C@@H](n4cnc5c(N)ncnc54)[C@H](OP(=O)(O)O)[C@@H]3O)[C@@H](O)[C@H]2O)C=CC1 [NADPH]
- Ki: 35 µM
